The text below walks through data of US20180134788A1, “Methods and Pharmaceutical Compositions (NTSR1 Inhibitors) for the Treatment of Hepatocellular Carcinomas” (INSERM (Institut National de la Sante et de la Recherche …, priority 2015, published 2018).

Assay [1] deals with NTSR1 transcription in HuH7, HEP 3B and PLC/PRF5 cells. Kind of assay: NTSR1 transcript analysis in HCC cell lines. It is filed as cell-based. Particulars: three HCC cell lines, 20 nM LiCl for 6 h. On the procedure:
(§1) (A) NTS, NTSR2, NTSR3, and NTSR1 transcript analysis from 400 ng of HuH7, HEP 3B, and PLC/RF5, total RNA. NTSR1 A and NTSR1 B show the amplicon from two different set of primers. (B) Typical immunocytochemistry labeling for NTSR1 and DAPI in HEP 3B and PLC/RF5 cells. Cells were seeded on glass slides, grown for 48 h, and immunocytochemistry was performed as described in the Materials and Methods section. (C) NTSR1 transcript analysis from HuH7, HEP 3B and PLC/RF5 of total RNA from cells treated or not with […] LiCl for 6 h. (D) Typical immunocytochemistry NTSR1 labeling of HEP 3B and PLC/RF5 cells treated with 1 μM SB 216763 for 6 h.
(§2) Among the three cell lines studied, only PLC/PRF5 cells presented a dysregulation in the beta catenin pathway with a deletion in Axin (E4/−). […] We previously hypothesized that NTSR1 expression was correlated with deregulated wnt/beta catenin pathways. To evaluate this hypothesis, we forced the cellular and nuclear relocation of β-catenin in these cells lines with the LiCl, and an inhibitor of the glycogen synthase kinase (GSK) 3β, the SB216763. LiCl and SB216763 are known to decrease the degradation of β-catenin by inhibiting GSK-3 and promoting the accumulation of β-catenin in the cytoplasm of liver cancer cells.

Assay [2] concerns cells overexpressing NTSR1 versus HEP 3B cells. The assay is described as follows: Cellular proliferation test. It is filed as cell-based. The conditions noted are these: cells overexpressing NTSR1 compared with HEP 3B cells. On the procedure: (§3) (A) Cellular proliferation performed on HEP 3B and HEP-R1b cells. Results are the means of 3 independents experiments and expressed as percentage of respective control. (B) Clonogenic assay performed with HEP 3B and HEP-R1b cells treated with different dose of erlotinib. Cells were incubated for two weeks with the treatment. Results are the means of 6 independents experiments and expressed as percentage of respective control. (C) Cellular proliferation performed on HEP 3B and HEP-R1a cells. Results are the means of 6 independents experiments. (D) Clonogenic assay performed with HEP 3B and HEP-R1a cells treated with different dose of sorafenib. Cells were incubated for two weeks with the treatment. Results are the means of 6 independents experiments.
(§4) We confirmed the erlotinib and sorafenib responses in cells overexpressing NTSR1 in clonogenic assay. […] In contrast, HEP 3B cells are not sensitive either to erlotinib or sorafenib.

Another assay deals with HEP 3B cells. The assay is described as follows: Clonogenic assay, HEP 3B cells. Type of assay: cell-based. The conditions noted are these: two weeks. On the procedure:
as §3, §4

The test system of assay [3] is HEP-R1b and HEP-R1a cells. The assay is described as follows: Clonogenic assay, NTSR1 overexpressing clones. Type of assay: cell-based. Particulars: two weeks. On the procedure:
as §3, §4

A further assay deals with HEP-R1a tumors. Kind of assay: HEP-R1a experimental tumor growth in mice. Type of assay: in vivo. On the procedure: (§5) (A) Experimental tumors were generated from the HCC cancer cell line, HEP 3B and PLC/RF5 and the NTSR1-overexpressing subclones. Comparative growth curves of HEP 3B, HEP-R1a, PLC/RF5, PLC/R1 in 8, 7, 10 and 7 mice, respectively. Tumor volumes were measured twice a week. (B) Tumor weight at 42 days. (C and D) Experimental tumors were generated from HEP 3B or HEP-R1a in the different mice. When the tumor size reached 100 mm3, mice were randomly distributed in 2 groups. A control group force feed with H2O, or with 1 mg/kg SR 48692 every day. (E) Typical IHC performed on paraffin sections for NTS, NTSR1 EGFR and phosphorylated EGFR labelling, 200× magnification.
(§6) Experimental tumors were generated from HEP 3B (A) and HEP-R1a (B) in the same mice. Mice were treated per os with 75 mg/kg erlotinib every day for 22 days. Tumor size was measured every two days. Result shown is the ratio of tumor compare to day 1. (C) The doubling time was subsequently calculated using the following formula: doubling time=t*((LN(2))/(LN(VOL F/VOL I)), at day 22.
(§7) Experimental tumors were generated from HEP 3B (D) or HEP-R1a (E) in the different mice. When the tumor size reached 100 mm^3, mice were randomly distributed in 2 groups. A control group force feed with H2O, and the treated group, force feed every day with […] sorafenib. Result shown is the ratio of tumor compare to day 1. (F) Tumor weight at day 15.
(§8) To determine the contribution of NTS/NTSR1 complex on tumor progression, mice were implanted with HCC cell lines and NTSR1 overexpressing clones. For HEP3B cells the tumors were measurable 21 days after cells injection. In contrast, the tumor burden for both clones overexpressing NTSR1 was measurable at day 13. The growth rate at day 42 was 2.9 and 2.08 fold higher for HEP-R1a and PLC-R1a as compared to respective parental cells, respectively, (FIG. 7A). As shown in FIG. 7B the tumor weights were in correspondence with the tumor size 4.3 and 2.8 fold higher for HEP-R1a and PLC-R1a as compared to their respective parental cells, respectively. To confirm the contribution of NTS/NSTR1 complex in tumor growth, animals were treated with a specific NTSR1 antagonist, the SR 48692. When tumors reach 100 mm3, the groups were treated per os with H2O, or 1 mg/kg SR 48692, respectively. […] The final tumor size of HEP-R1a tumors treated with SR 48692 was 441.9±39.85 mm^3, and was very similar to the untreated HEP 3B tumors 516.3±139.72 mm^3.
(§9) As shown above, NTSR1 activation induced a sustained EGFR activation, which we believe, acts as EGFR driver mutation (FIG. 4). To explore this hypothesis, the HCC cell lines HEP 3B and HEP-R1a were xenografted on the same mice. The mice were randomly distributed in two groups based on the size of the HEP 3B tumors. Since HEP-R1a tumors grow faster than HEP 3B tumors, HEP 3B cells were injected a few days before HEP-R1a cells. In the control group, the average HEP3B tumor size was 168.2±38.1 mm3 and the HEP-R1a tumor size was 79.7±16.4 mm3 at day 1. The treated group carried HEP 3B tumors of 164.7±31.2 mm3 and HEP-R1a tumors of 87.2±19.13 mm3 at day 1. Mice were daily treated, per os, with 75 mg/kg erlotinib or H2O for 22 days. […] Over the period of the treatment, the doubling time of HEP-R1a tumors was 7.0±0.55 days and 10.1±1.1 (p=0.0016) for control and treated with erlotinib, respectively. For the HEP 3B tumors, the doubling time was similar 7.8±0.52 and 7.7±0.84 days for control and treated group respectively (FIG. 8 C).
Sorafenib is a known multikinase inhibitor targeting Raf/MEK/ERK signaling at the level of Raf kinase, angiogenesis, VEGFR-2/-3, and PDGFR-β tyrosine kinase. Sorafenib is currently used to treat HCC with some success. In order to evaluate the autocrine NTS regulation on sorafenib responses, each HEP 3B or HEP-R1a cells were injected to four groups of mice. When tumors reach 100 mm3, the groups were treated per os with H2O, 30 mg/kg sorafenib for 15 days, respectively. […]

Another assay concerns HEP 3B tumors. The assay is described as follows: HEP 3B experimental tumor growth in mice. Type of assay: in vivo. On the procedure:
as §5, §6, §7, §8
as §9, with “C). […]” for “C).”

Another assay deals with advanced HCC. The conditions noted are these: patients with advanced HCC and well-compensated liver function, oral; cited from earlier work.
For assay [4], the system named is EGFR expression in PLC/PRF5 and HEP3B cells. The assay is described as follows: EGFR immunocytochemistry labeling in HCC cell lines. The conditions noted are these: PLC/PRF5 and HEP3B, 48 h; 1 μM SB216763 or 5 μM SR48692. It is filed as cell-based. On the procedure: (§10) (A) Typical immunocytochemistry labeling for NTSR1 (Top) and EGFR (Bottom) in PLC/RF5 and HEP 3B cells treated or not with 1 μM SB216763 or 5 μM SR4892 or both for 48 h. (B and C) Representative western blot analyses of Tyr 1173 phosphorylated EGFR, EGFR, and actin of HEP 3B and PLC/RF5 treated as indicate above.
(§11) It was previously shown that the NTS/NTSR1 complex potentiates EGF signaling in liver, colon, prostate, lung, and breast cancer. We investigated the possible relation between NTSR1 expression and EGFR expression and activation. […] Treatment with SR48692, a specific NTSR1 antagonist, decreased the expression of EGFR, whereas NTSR1 expression was not altered. When the combined treatment with SB216763 and SR48692 is used, the effect of SB216763 on EFGR expression is limited by the presence of the NTSR1 antagonist (FIG. 5A).

For assay [5], the system named is phosphorylated-EGFR in HEP 3B and PLC/RF5 cells. The assay is described as follows: Western blot of Tyr 1173 phosphorylated EGFR in HCC cell lines. It is filed as cell-based. Particulars: both cell lines, SB216763 treatment. On the procedure:
as §10
In both cell lines, phosphorylated-EGFR was increased under SB216763 treatment this increase was abolished when SR 48692 was added to the treatment.

Assay [6] deals with NTSR1 expression in HEP 3B and PLC/PRF5 cells. The assay is described as follows: NTSR1 immunocytochemistry labeling in HCC cell lines. It is filed as cell-based. On the procedure: as §1, §10, §2, §11
The mark [7] stands for this setting: 30 mg/kg sorafenib per os, 15 days.

Take `[Cl-].[Li+]` [LiCl]: the NTSR1 transcription entry in assay [1] was “upregulated”.

For `C#Cc1cccc(Nc2ncnc3cc(OCCOC)c(OCCOC)cc23)c1` [erlotinib], the “sensitivity in cellular proliferation test” value in assay [2] is “more sensitive”. In the assay on HEP 3B cells, the “sensitivity in clonogenic assay” value is given as “not sensitive”. Besides, the number of colonies entry in assay [3] (HEP-R1b cells exposed to erlotinib) is listed as “markedly reduced”. Besides, the tumor growth rate entry with HEP-R1a tumors (75 mg/kg erlotinib per os daily, 22 days) was “drastically affected”. The tumor doubling time is 10.1 ± 1.1 days in the assay with HEP-R1a tumors (75 mg/kg erlotinib, day 22) and 7.7 ± 0.84 days in the assay on HEP 3B tumors (HEP 3B tumors, 75 mg/kg erlotinib, day 22). Besides, in the assay with HEP 3B tumors (HEP3B tumors, 75 mg/kg erlotinib per os daily, 22 days), the tumor growth response entry is “did not respond”.

As to `CNC(=O)c1cc(Oc2ccc(NC(=O)Nc3ccc(Cl)c(C(F)(F)F)c3)cc2)ccn1` [sorafenib], in [2], the “sensitivity in cellular proliferation test” value is reported as “more sensitive”. Besides, the survival result with advanced HCC is “prolong survival”. For the same compound, the “sensitivity in clonogenic assay” value in the assay with HEP 3B cells is on record as “not sensitive”. For the same compound, the number of colonies result in assay [3] (HEP-R1a cells exposed to sorafenib) is “markedly reduced”. Also, the final tumor size in the assay on HEP-R1a tumors (setting [7]) stood at 400.3±59.9 mm3. Besides, the tumor growth rate entry is recorded as “inhibited by two fold” in the assay on HEP-R1a tumors (setting [7]) and “no influence” in the assay on HEP 3B tumors (HEP 3B tumors, 30 mg/kg sorafenib per os, 15 days). This compound displayed a tumor weight in the assay with HEP-R1a tumors (sorafenib treated group, end of treatment (day 15)) of 0.650 ± 0.080 g. Also, the “tumor weight versus control” value in the assay on HEP 3B tumors (HEP 3B tumors, sorafenib treated group, end of treatment) was “approximately equal”.

On to `Cn1cc(C2=C(c3ccc(Cl)cc3Cl)C(=O)NC2=O)c2ccccc21` [SB216763], for which the EGFR expression entry in [4] was “increase”. Moreover, in assay [5], the phosphorylated-EGFR result is recorded as “increased”. In addition, the NTSR1 immunolabeling signal result in assay [6] (HEP3B and PLC/PRF5 cells, 1 μM SB 216763 for 6 h) is “remarkably amplified”. For the same compound, the NTSR1 expression result in [6] (PLC/PRF5 and HEP3B, 48 h, 1 μM SB216763 or 5 μM SR48692) is on record as “increase”.
